Test results taken from patent US7659240B2, “Mucin immobilized chromatography” (Vertex Pharmaceuticals Incorporated, priority 2002, dated 2010).
Counter-ions that a name gives are not always drawn.

Columns and labels:
[1] = tested on: mucin immobilized to IAM.PC.DD2; assay: HPLC on MIC column (2:1 mucin to PC IAM particles): retention time, k′MIC, derived Km and Peff MIC; conditions: for k′MIC / Retention Time: MIC column 2:1 mucin:IAM, MPS pH 7.4; for Retention Time: isocratic 0.3 ml/min; for Dm: membrane diffusion coefficient calculated from molecular weight; for K′MIC: Table 5
Protocol: [formula] where Dm is the membrane diffusion coefficient of the solute, Km is the membrane equilibrium constant, and L is the membrane thickness (Stein, W., Transport and Diffusion Across Cell Membranes, Academic Press, Orlando, Fla. (1986)). […] Since molecular weight, MW, is proportional to molecular size, Dm may also written as,
[formula] Thus, Dm can be calculated from the molecular weight. Furthermore, Km is calculated by the following equation, Km−(Vm/Vs)k′, [4] where Vm is the volume of the mobile phase, Vs is the internal volume of the stationary phase, and k′ is the partition ratio (Pidgeon and Ong, Chemtech. June, 38-48 (1995)). The partition ratio is determined by the equation, k′−(tr−to)/to, [5] where tr is the retention time of the drug and to is the void volume of the column. Both tr and to can be experimentally determined in order to obtain k′.
Equation 2 can be used to determine Km for a given MIC medium. Both Dm and L are known from the discussion above, and Peff can be calculated for various drugs having known in vivo absorption. For example, a number of drug permeability coefficients, Peff, derived from in vivo experiments are listed in literature. […] See Example 5 below.

[2] = tested on: mucin immobilized to PC IAM particles; assay: pH and mucin layer thickness dependence of partition ratio on MIC columns (1:2 and 2:1); conditions: for (1:2) k′ (pH 3) / (1:2) k′ (pH 5) / (1:2) k′ (pH 7): column 1:2 mucin to PC IAM, 0.32 μm mucin layer; for (1:2) k′ (pH 3) / (2:1) k′ (pH 3): mobile phase pH 3; for (1:2) k′ (pH 5) / (2:1) k′ (pH 5): mobile phase pH 5; for (1:2) k′ (pH 7) / (2:1) k′ (pH 7): mobile phase pH 7; for (2:1) k′ (pH 3) / (2:1) k′ (pH 5) / (2:1) k′ (pH 7): column 2:1 mucin to PC IAM, 0.36 μm mucin layer
Protocol: Samples were dissolved in mobile phase solution and filtered (filter pore size, 0.45 μm) prior to injection. […] From this measurement and a measurement of the void volume (t0) the k′MIC could be determined. In addition, from the molecular weight of the compounds, Dm could be determined. These compounds, with the exceptions noted below, were used to generate the column constant (Vm/Vs).
For these reasons, the influence of pH on drug retention times was measured on columns having two different mucin layer thicknesses, 0.32 μm (column prepared with a 1:2 wt % of mucin to PC IAM particles) and 0.36 μm (column prepared with a 2:1 wt % of mucin to PC IAM particles)(Table 8). […] The influence of pH on drug retention time was measured by using different mobile phase buffers adjusted to pH 3, 5 or 7 on either the 0.32 μm or 0.36 μm column.
Capacity factors were calculated from drug retention times collected on columns having two different mucin layer thicknesses, 0.32 μm (column prepared with a 1:2 wt % of mucin to PC IAM particles) and 0.36 μm (column prepared with a 2:1 wt % of mucin to PC IAM particles).

[3] = Table 5; cited from earlier work
[4] = single-pass perfusions; Table 5; cited from earlier work

| SMILES | k′MIC [1] | Retention Time [1] | Dm [1] | K′MIC ([1]; MIC 2:1) | (1:2) k′ (pH 3) [2] | (1:2) k′ (pH 5) [2] | (1:2) k′ (pH 7) [2] | (2:1) k′ (pH 3) [2] | (2:1) k′ (pH 5) [2] | (2:1) k′ (pH 7) [2] | δ = log k′MIC − log k′IAM [1] | log k′MIC ([1]; MIC 2:1) | % Absorbed [3] | Peff MIC (×10^−4 cm/s) [1] | Peff Loc-I-Gut (×10^−4 cm/s) [4] |
| --- | --- | --- | --- | --- | --- | --- | --- | --- | --- | --- | --- | --- | --- | --- | --- |
| CC(C)(C)NC[C@H](O)COc1nsnc1N1CCOCC1 [Timolol] | 36.1429 | 2.6 | 0.0023 | – | – | – | – | – | – | – | – | – | – | – | – |
| COc1ccc(CCN(C)CCCC(C#N)(c2ccc(OC)c(OC)c2)C(C)C)cc1OC (stereo not shown) [Verapamil] | 71.8571 | 5.1 | 0.0020 | 71.86 | – | – | – | – | – | – | – | – | – | – | – |
| CC(=O)CC(c1ccccc1)c1c(O)c2ccccc2oc1=O (stereo not shown) [Warfarin] | 54.7143 | 3.9 | 0.0032 | – | 25.67 | 30.67 | 39.00 | 21.86 | 24.71 | 19.00 | 0.59 | 1.74 | – | – | – |
| CC(=O)Nc1ccc(O)cc1 [acetaminophen] | 38.2857 | 2.8 | 0.0066 | – | 64.00 | 65.67 | 64.00 | 50.43 | 51.86 | 62.33 | – | – | – | – | – |
| CC(=O)Oc1ccccc1C(=O)O [acetyl salicylic acid] | 38.5714 | 2.8 | 0.0055 | – | 34.00 | 40.67 | 22.33 | 30.43 | 24.71 | 20.67 | – | – | – | – | – |
| CN(Cc1cnc2nc(N)nc(N)c2n1)c1ccc(C(=O)N[C@@H](CCC(=O)O)C(=O)O)cc1 [amethopterin] | – | – | – | – | 10.67 | 29.00 | 12.33 | none | 13.29 | 57.33 | – | – | – | – | – |
| COc1ccc(Cl)cc1C(=O)NCCc1ccc(S(=O)(=O)NC(=O)NC2CCCCC2)cc1 [glybenclamide] | – | – | – | – | none | 30.67 | 30.67 | none | 19.00 | 34.00 | – | – | – | – | – |
| NCC(=O)O [glycine] | – | – | – | – | none | none | none | none | none | none | – | – | – | – | – |
| O=C(CCCN1CCC(O)(c2ccc(Cl)cc2)CC1)c1ccc(F)cc1 [haloperidol] | – | – | – | – | 30.67 | 44.00 | 110.67 | 23.29 | 34.71 | 95.67 | – | – | – | – | – |
| CC(C)C[C@H](N)C(=O)O [leucine] | – | – | – | – | none | none | none | none | none | none | – | – | – | – | – |
| C=C[C@H]1C[N@@]2CC[C@H]1C[C@@H]2[C@@H](O)c1ccnc2ccc(OC)cc12 [quinidine, HCl] | 70.4286 | 5.0 | 0.0026 | – | – | – | – | – | – | – | – | – | – | – | – |
| O=C(O)c1cc(/N=N/c2ccc(S(=O)(=O)Nc3ccccn3)cc2)ccc1O [sulfasalazine] | 71.8571 | 5.1 | 0.0025 | – | 87.33 | 85.67 | 24.00 | 70.43 | 67.57 | 22.33 | – | – | – | – | – |
| C[C@](N)(Cc1ccc(O)c(O)c1)C(=O)O [α-methyldopa] | 33.2857 | 2.4 | 0.0047 | 33.29 | – | – | – | – | – | – | – | – | 0% | 0.10 ×10^−4 cm/s | 0.2 ×10^−4 cm/s |
